In patent publication US20090117654A1, “MEDIUM FOR CULTURING HEM[…] AND A METHOD OF CULTURING HEM[…]” (SAMSUNG ELECTRONICS CO., LTD., priority 2006, published 2009):

Legend:
bone marrow cells [1] = experiment: Proliferation of bone marrow cells in serum-free basal medium including IL-3; format: cell-based, human; conditions: for proliferation of bone marrow cells, times more than the control medium including IL-3: 2 week culture
Experimental: Effects of BAPN on proliferation of bone marrow cells in serum-free basal medium including IL-3 which induces divisions of hematopoietic stem cells were inspected.
A bone marrow monocyte (Catalog number ARM07F) was purchased from Stem Cell Technology Co., Ltd. The bone marrow monocyte was obtained from a normal person, and CD34+ cells accounted for 1.6% of the total monocytes. The bone marrow cells were maintained in a maintaining medium. The maintaining medium was a IMDM including 50 ng/ml of SCF, 50 ng/ml of IL-6, 50 ng/ml of TPO, 50 ng/ml of FL, 10 μg/ml of recombinant human insulin, 100 μg/ml of bovine serum albumin (BSA), 200 μg/ml of human transferrin, 0.1 mM of 2-mercaptoethanol, and 2 mM of L-glutamine.
(§1) 100 μl of the basal medium with 20 μg/ml of IL-3, and 100 μl of the basal medium with 20 μg/ml of IL-3 and 100 μg/ml of BAPN were placed in each well of a 24 well plate, bone marrow cells were inoculated onto the media in the concentration of 1×10^5 cell/ml, and cultured for two weeks. The medium was exchanged every week. After the 2 week culture, adhesive cells were detached from the surface through trypsin treatment and the final cell concentration including floating cells was measured using a hemacytometer. In addition, the bottom of the 24 well plate was coated with collagen IV or fibronectin, and the effects of collagen IV or fibronectin were measured at the same time. In the coating, coating materials were dissolved to the concentration of from 5 to 50 μg/ml, the mixture was poured into the 24 wells to the amount of from 1 to 10 μg/cm^2 and reacted for one hour at room temperature.

bone marrow cells [2] = experiment: Proliferation of bone marrow cells in serum-free basal medium; format: cell-based, human; conditions: for proliferation of bone marrow cells, times more than the control medium: 100 μg/ml BAPN, two week culture
From the text: Effects of β-aminopropionitrile (hereinafter referred to as BAPN) on proliferation of bone marrow cells in serum-free medium were inspected. The bone marrow cells used in Example 1 mostly consists of hematopoietic cells and is a population of cells including hematopoietic cells.
First, proliferations of bone marrow cells were inspected in a serum-free medium in the presence and absence of fibronectin and collagen IV which are extracellular matrix that is known to influence proliferation of bone marrow cells.
A bone marrow monocyte (Catalog number ARM07F) was purchased from Stem Cell Technology Co., Ltd. The bone marrow mononuclear cells was obtained from a normal person, and CD34+ cells accounted for 1.6% of the cells. The bone marrow cells were maintained in a maintenance medium. The maintenance medium was a IMDM including 50 ng/ml of SCF, 50 ng/ml of IL-6, 50 ng/ml of TPO, 50 ng/ml of FL, 10 μg/ml of recombinant human insulin, 100 μg/ml of bovine serum albumin (BSA), 200 μg/ml of human transferrin, 0.1 mM of 2-mercaptoethanol, and 2 mM of L-glutamine.
as §1, with “the basal medium, and 100” for “the basal medium with 20 μg/ml of IL-3, and 100”, “medium with 100 μg/ml” for “medium with 20 μg/ml of IL-3 and 100 μg/ml”, “After the two week culture,” for “After the 2 week culture,”, “same time. The coating materials” for “same time. In the coating, coating materials”

N#CCCN [BAPN, β-aminopropionitrile]
proliferation of bone marrow cells, times more than the control medium including IL-3 (bone marrow cells [1]; 100 μg/ml BAPN with IL-3, collagen-coated 24 well plate): 2.6 times
proliferation of bone marrow cells, times more than the control medium including IL-3 (bone marrow cells [1]; 100 μg/ml BAPN with IL-3, fibronectin-coated 24 well plate): 2.0 times
proliferation of bone marrow cells, times more than the control medium including IL-3 (bone marrow cells [1]; 100 μg/ml BAPN with IL-3, uncoated 24 well plate): 3.1 times
effect on proliferation of bone marrow cells (bone marrow cells [1]; with or without extracellular matrix coating, with or without cytokine (IL-3)): promoted the proliferation of bone marrow cells
proliferation of bone marrow cells, times more than the control medium (bone marrow cells [2]; collagen-coated 24 well plate): 5.1 times
proliferation of bone marrow cells, times more than the control medium (bone marrow cells [2]; fibronectin-coated 24 well plate): 12.1 times
proliferation of bone marrow cells, times more than the control medium (bone marrow cells [2]; uncoated 24 well plate): 5.4 times
effect on proliferation of bone marrow cells (bone marrow cells [2]; whether or not the culture vessel was coated with extracellular matrix): promoted the proliferation of bone marrow cells
